{
  "source": "paper PMC3928307",
  "about": "“Long-Term Activation upon Brief Exposure to Xanomleline Is Unique to M1 and M4 Subtypes of Muscarinic Acetylcholine Receptors” (PLoS ONE, 2014)",
  "key": {"[1]": {"target": "T1, hM4 muscarinic receptor (Homo sapiens, UniProt P08173)", "T1 construct": "gene CHRM4", "T1 sequence (P08173 1-479)": "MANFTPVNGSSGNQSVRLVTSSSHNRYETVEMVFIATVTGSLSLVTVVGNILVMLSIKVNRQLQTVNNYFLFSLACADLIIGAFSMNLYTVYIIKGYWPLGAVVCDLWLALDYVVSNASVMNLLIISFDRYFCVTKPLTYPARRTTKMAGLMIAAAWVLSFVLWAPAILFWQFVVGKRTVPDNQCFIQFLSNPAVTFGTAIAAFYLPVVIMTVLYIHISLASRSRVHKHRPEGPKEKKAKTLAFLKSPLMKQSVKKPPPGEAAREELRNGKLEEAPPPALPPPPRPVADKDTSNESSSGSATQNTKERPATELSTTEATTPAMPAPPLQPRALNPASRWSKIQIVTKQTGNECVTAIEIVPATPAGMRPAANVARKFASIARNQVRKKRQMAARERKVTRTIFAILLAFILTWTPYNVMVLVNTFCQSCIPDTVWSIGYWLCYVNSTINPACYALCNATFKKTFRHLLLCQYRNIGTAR", "test": "cell-based"}, "[2]": {"target": "T2, hM2 muscarinic receptor (Homo sapiens, UniProt P08172)", "T2 construct": "gene CHRM2; full-length receptor stably expressed in CHO cells; human G16 transiently co-transfected for calcium assay", "T2 sequence (P08172 1-466)": "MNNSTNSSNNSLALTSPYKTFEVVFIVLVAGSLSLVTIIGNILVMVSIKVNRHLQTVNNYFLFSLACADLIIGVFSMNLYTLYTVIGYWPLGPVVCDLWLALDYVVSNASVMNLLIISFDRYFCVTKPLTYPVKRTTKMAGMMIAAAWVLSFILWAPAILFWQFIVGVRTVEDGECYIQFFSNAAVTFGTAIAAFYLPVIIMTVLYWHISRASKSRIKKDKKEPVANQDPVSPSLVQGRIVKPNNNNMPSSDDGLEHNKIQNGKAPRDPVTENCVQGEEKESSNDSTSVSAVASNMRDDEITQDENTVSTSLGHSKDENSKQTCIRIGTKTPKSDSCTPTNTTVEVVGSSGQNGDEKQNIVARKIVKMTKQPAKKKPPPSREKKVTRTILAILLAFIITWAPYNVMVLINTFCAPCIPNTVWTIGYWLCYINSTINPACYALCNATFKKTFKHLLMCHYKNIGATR", "test": "Fura-2 intracellular calcium microfluorometry, CHO cells", "type": "cell-based", "conditions": "read-out: oxotremorine / pEC50 (converted)", "text": "Fura-2 intracellular calcium microfluorometry, CHO cells on hM2 muscarinic receptor"}, "[3]": {"target": "T3, hM5 muscarinic receptor (Homo sapiens, UniProt P08912)", "T3 construct": "gene CHRM5; full-length receptor stably expressed in CHO cells (Missouri S&T cDNA Resource Center)", "T3 sequence (P08912 1-532)": "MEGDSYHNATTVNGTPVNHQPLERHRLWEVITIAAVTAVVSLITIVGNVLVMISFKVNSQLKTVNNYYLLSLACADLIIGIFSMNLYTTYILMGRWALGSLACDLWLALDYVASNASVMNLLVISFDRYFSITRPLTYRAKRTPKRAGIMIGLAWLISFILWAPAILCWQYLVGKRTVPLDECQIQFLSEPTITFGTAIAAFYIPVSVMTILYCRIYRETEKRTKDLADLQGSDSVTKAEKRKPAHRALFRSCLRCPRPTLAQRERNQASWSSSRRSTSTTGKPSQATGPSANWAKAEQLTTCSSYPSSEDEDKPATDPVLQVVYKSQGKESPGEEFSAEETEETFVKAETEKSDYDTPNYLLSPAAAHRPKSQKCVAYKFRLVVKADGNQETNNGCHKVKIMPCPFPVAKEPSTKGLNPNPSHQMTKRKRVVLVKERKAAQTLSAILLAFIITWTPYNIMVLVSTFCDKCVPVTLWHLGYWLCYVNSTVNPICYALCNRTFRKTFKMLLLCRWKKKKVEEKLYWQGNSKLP", "test": "Fura-2 intracellular calcium microfluorometry, CHO cells", "type": "cell-based", "conditions": "read-out: oxotremorine / pEC50 (converted)", "text": "Fura-2 intracellular calcium microfluorometry, CHO cells on hM5 muscarinic receptor"}, "[4]": {"target": "T4, hM3 muscarinic receptor (Homo sapiens, UniProt P20309)", "T4 construct": "gene CHRM3; full-length receptor stably expressed in CHO cells (Missouri S&T cDNA Resource Center)", "T4 sequence (P20309 whole entry)": "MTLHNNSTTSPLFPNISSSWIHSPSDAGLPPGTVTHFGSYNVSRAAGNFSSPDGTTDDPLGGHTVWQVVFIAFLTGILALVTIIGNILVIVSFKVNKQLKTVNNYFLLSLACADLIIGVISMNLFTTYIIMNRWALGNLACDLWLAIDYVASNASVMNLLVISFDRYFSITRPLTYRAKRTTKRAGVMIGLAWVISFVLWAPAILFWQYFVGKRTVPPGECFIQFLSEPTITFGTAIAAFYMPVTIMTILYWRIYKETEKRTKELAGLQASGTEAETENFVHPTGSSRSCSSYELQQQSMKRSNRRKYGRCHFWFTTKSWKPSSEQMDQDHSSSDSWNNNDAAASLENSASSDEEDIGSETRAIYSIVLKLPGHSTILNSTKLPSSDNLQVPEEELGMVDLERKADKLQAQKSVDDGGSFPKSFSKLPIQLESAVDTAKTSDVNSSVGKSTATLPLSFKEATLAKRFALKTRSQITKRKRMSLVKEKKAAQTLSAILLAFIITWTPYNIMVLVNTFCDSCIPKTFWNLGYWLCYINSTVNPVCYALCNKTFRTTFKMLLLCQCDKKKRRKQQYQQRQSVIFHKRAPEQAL", "test": "Fura-2 intracellular calcium microfluorometry, CHO cells", "type": "cell-based", "conditions": "read-out: oxotremorine / pEC50 (converted)", "text": "Fura-2 intracellular calcium microfluorometry, CHO cells on hM3 muscarinic receptor"}, "[5]": {"target": "T5, hM1 muscarinic receptor (Homo sapiens, UniProt P11229)", "T5 construct": "gene CHRM1", "T5 sequence (P11229 1-460)": "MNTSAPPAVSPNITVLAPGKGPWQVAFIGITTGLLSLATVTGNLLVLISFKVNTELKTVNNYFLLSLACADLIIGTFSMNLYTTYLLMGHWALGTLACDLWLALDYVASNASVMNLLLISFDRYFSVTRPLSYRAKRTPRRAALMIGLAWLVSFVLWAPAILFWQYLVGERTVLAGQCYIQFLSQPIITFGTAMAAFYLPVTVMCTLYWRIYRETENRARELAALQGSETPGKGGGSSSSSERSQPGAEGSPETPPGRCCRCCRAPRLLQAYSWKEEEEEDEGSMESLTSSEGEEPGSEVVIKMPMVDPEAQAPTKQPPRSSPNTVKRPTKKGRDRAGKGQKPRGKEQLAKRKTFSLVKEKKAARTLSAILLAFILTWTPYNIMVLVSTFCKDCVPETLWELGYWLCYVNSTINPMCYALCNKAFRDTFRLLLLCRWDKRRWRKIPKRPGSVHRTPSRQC", "test": "cell-based", "text": "Fura-2 intracellular calcium microfluorometry, CHO cells on hM1 muscarinic receptor"}},
  "data": [
    {"smiles": "O=C1CCCN1CC#CCN1CCCC1", "note": "[oxotremorine]", "values": [
      {"measurement": "EC50", "setting": "[1]", "value": 67.6, "unit": "nM"},
      {"measurement": "EC50", "setting": "[2]", "value": 64.6, "unit": "nM"},
      {"measurement": "EC50", "setting": "[3]", "value": 51.3, "unit": "nM"},
      {"measurement": "EC50", "setting": "[4]", "value": 46.8, "unit": "nM"},
      {"measurement": "EC50", "setting": "[5]", "value": 46.8, "unit": "nM"}
    ]}
  ]
}
